Test results published in US20060269504A1, “Use of alkyl resorcinols in the treatment of acne” (priority 2003, published 2006).
Values after ≈ are worked out from the molar mass of the structure shown. “Also recorded” adds a separate entry of the source. Read-outs that look alike come from different tables or passages of the source.

Columns and labels:
[1] = test system: Corynebacterium sp. NCIMB 40928; experiment: In vitro corynebacterial model: pentadecanoic acid biotransformation to propionic acid (GC) and culture viability (TVC); format: cell-based; details: for BIC50, concentration at 50% inhibition of pentadecanoic acid biotransformation to propionic acid: aerobic, 35° C.; for BIC50 MoA(s), mode of action at BIC50 level: by reference to culture viability data; for MBC: read-out: MBC, minimum bactericidal levels
Protocol: (§1) The propionibacterial model involved the use of 7 ml glass vials, to which were added 6.0 ml synthetic medium (see below), supplemented with glucose substrate (2.0 mg/ml). The corynebacterial model involved the use of 250 ml baffled shake flasks, to which were added 30.0 ml synthetic medium (see below), supplemented with fatty acid substrate (2.0 mg/ml pentadecanoic acid). To each vial or flask (other than controls) was also added one of the indicated test materials, from a 1.0-10.0% (w/v) stock solution in 50% (v/v) ethanol. Each assay was inoculated with fresh bacterial biomass (Propionibacterium acnes G63 [skin isolate], P. avidum NCTC 11864 or Corynebacterium sp. NCIMB 40928), pre-grown for 24-48 h, under aerobic (corynebacteria) or anaerobic (propionibacteria) conditions, in TSBT (see below), to give starting optical densities (A590) of ˜1.0. Following inoculation, the vials and flasks were incubated aerobically (corynebacteria) or anaerobically (propionibacteria) at 35° C., with agitation (120 rpm), for 24 h. After this time, culture viability was determined by total viable count (TVC) analysis on ACX plates (see below), following serial dilution in quarter-strength Ringers solution. Also, at the end of each experiment, the extent of glucose or fatty acid biotransformation to propionic acid was measured by capillary gas chromatography (GC) (see below), and the dose response data used to calculate, for each active ingredient, a BIC so value (50% biotransformation inhibition concentration). The mode of action (bacteriostatic or bactericidal) at this level was elucidated by reference to culture viability data, which was also used to determine the MBC (minimum bactericidal concentration), defined as the minimum level of each active effecting a >3 log10 ml^31 1 reduction in viability (Tables 1 & 2). Finally, the data for P. acnes G63 and P. avidum NCTC 11864 were combined to generate mean and range anti-propionibacterial values (Table 1).
(§2) KH2PO4 (1.6); (NH4)2HPO4 (5.0); Na2SO4 (0.38); KNO3 (0.1); NaHCO3 (1.0); sodium thioglycolate (1.0); sodium pyruvate (1.0); yeast nitrogen base (Difco) (3.35); MgCl2.6H2O (0.5).
(§3) Tryptone soya broth (Merck) (30.0); yeast extract (Beta Lab) (10.0); Tween 80™ (5.0).
(§4) blood agar base no. 2 (Oxoid) (39.5); yeast extract (Beta Lab) (3.0); glucose (2.0); Tween 80 ™ (5.0); defibrinated horse blood (50 ml/l).
(§5) 1.0 ml aliquots from each assay vial were transferred into sampling tubes, an internal standard (1.0 mg/ml caproic acid) added to each tube, and the culture medium acidified (pH˜2) by the addition of HCl. Liquid-liquid extraction was then carried out using 2 vol (2 ml) ethyl acetate, with organic and aqueous phases being resolved by centrifugation (2000 rpm, 2 min). ˜0.75 ml of each organic (upper) phase was then transferred to a fresh sampling tube prior to analysis on a Perkin Elmer 8000 (Series 2) GC fitted with a 15 m×0.32 mm (internal diameter) FFAP fused silica capillary column (film thickness 0.25 μm) (Quadrex). Metabolite levels were quantified by comparison of peak areas with known amounts of both internal (caproic acid) and externally-run (propionic acid) standards. GC running conditions as indicated: injector (split/splitless), 300° C.; detector (flame ionisation), 300° C.; oven, 80° C. (2 min), 80-155° C. (7.5° C./min), 155° C. (1 min); injection volume, 1.0 μl.

[2] = test system: P. acnes G63 and P. avidum NCTC 11864; experiment: In vitro propionibacterial model: glucose biotransformation to propionic acid (GC) and culture viability (TVC); format: cell-based; details: for BIC50 MoA(s), mode(s) of action at BIC50 levels: P. acnes G63 and P. avidum NCTC 11864, by reference to culture viability data; for BIC50, mean concentration at 50% inhibition of glucose biotransformation to propionic acid: mean of P. acnes G63 and P. avidum NCTC 11864, anaerobic, 35° C.; for BIC50, mean concentration at 50% inhibition of glucose biotransformation to propionic acid / MBC, range of minimum bactericidal levels: 24 h; for MBC, range of minimum bactericidal levels: range for P. acnes G63 and P. avidum NCTC 11864, minimum level effecting >3 log10 reduction in viability
Protocol: as §1, §2, §3, §4, §5

[3] = Corynebacterium sp. NCIMB 40928, 24 h
[4] = Corynebacterium sp. NCIMB 40928

SMILES | BIC50, concentration at 50% inhibition of pentadecanoic acid biotransformation to propionic acid [1, 3] [ppm] | BIC50 MoA(s), mode of action at BIC50 level [1, 4] | MBC ([1]; NCIMB40928, Corynebacterium sp. NCIMB 40928, minimum level effecting >3 log10 reduction in viability, 24 h) [µg/mL] | BIC50 MoA(s), mode(s) of action at BIC50 levels [2] | selectivity for Propionibacterium spp. compared to other bacteria normally present on the skin ([2]; comparison of Tables 1 and 2, versus Triclosan) | BIC50, mean concentration at 50% inhibition of glucose biotransformation to propionic acid [2] [ppm] | MBC, range of minimum bactericidal levels [2] | anti-propionibacterial properties compared with Triclosan ([2]; summary of Table 1) | MBC ([1]; Corynebacterium, NCIMB40928, 24 h) [µg/mL]
CCCCCCc1ccc(O)cc1O [4-Hexylresorcinol, 4-hexylresorcinol] | 118 | Bacteriostatic | > 500 | Bacteriostatic/; also recorded: Bactericidal | far greater selectivity than Triclosan | 42 | 50-100 ppm | as good as those of Triclosan | –
Oc1cc(Cl)ccc1Oc1ccc(Cl)cc1Cl [Triclosan, 2,4,4′-trichloro-2′-hydroxydiphenyl ether, reference compound] | 20 | Bacteriostatic | – | Bactericidal; also recorded: Bacteriostatic/ | – | 39 | 50-100 ppm | – | 50 (≈ 173 µM)
